According to US6268366A, “Amide derivatives of substituted quinoxaline 2,3-diones as glutamate receptor antagonists” (Warner-Lambert Company, priority 2000, dated 2001):

Experiments:
AMPA receptors = experiment: AMPA receptor binding affinity (Honore et al.)
[1] = target: T1, glycine (GLY) site of the NMDA receptor (Rattus norvegicus, UniProt P35439); experiment: glycine (GLY) site of the NMDA receptor binding affinity (Jones et al.)
T1 construct: measured as described in Jones S. M., et al., Pharmacol. Methods, 1989;21:161; from tissue

[2] = target: kainate site (non-NMDA receptor); experiment: kainate site (non-NMDA receptor) binding affinity (London and Coyle)
CF-1 strain mice = experiment: maximal electroshock (MES) assay in CF-1 strain mice, corneal electrodes; assay type: in vivo; conditions: for Ataxic (%) / Protected (%): MES, mice IV; for duration of action in maximal electroshock time course compared with PNQX: mice, 30 mg/kg IV, versus standard PNQX, FIGS. 1 and 2
Method: Additionally, as a preliminary indicator of in vivo CNS activity related to anticonvulsant activity and potential neuroprotection, a maximal electroshock assay in CF-1 strain mice (20-25 g) was performed with corneal electrodes by conventional methods as described previously (Krall, et al., Epilepsia, 1988;19:409-428).
FIGS. […] The graph is the percent of mice protected versus the time in minutes.

Question: `CC(=O)N(C)Cc1c(C)c([N+](=O)[O-])cc2[nH]c(=O)c(=O)[nH]c12` [Compound 1, N-Methyl-N-(6-methyl-7-nitro-2,3-dioxo-1,2,3,4-tetrahydro-quinoxalin-5-ylmethyl)-acetamide] was tested. Which IC50 (AMPA receptors) did it give?
Answer: The IC50 was 350 nM.

Question: And the IC50 [1]?
Answer: The IC50 was 30 nM.

Question: What about the “IC50 KA” value [2] of the same molecule?
Answer: Its value is 1660 nM.

Question: Which results are given for `Cc1c([N+](=O)[O-])cc2[nH]c(=O)c(=O)[nH]c2c1CN(C)C(=O)C1CCCCC1` [Compound 3, Cyclohexanecarboxylic acid-methyl-(6-methyl-7-nitro-2,3-dioxo-1,2,3,4-tetrahydro-quinoxalin-5-ylmethyl)amide]?
Answer: IC50 (AMPA receptors): 910 nM; IC50 [1]: 300 nM; IC50 KA [2]: 3210 nM

Question: Which IC50 (AMPA receptors) does the source give for `Cc1c([N+](=O)[O-])cc2[nH]c(=O)c(=O)[nH]c2c1CN(C)C(=O)CC1CCCCC1` [Compound 4, 2-Cyclohexyl-N-methyl-N-(6-methyl-7-nitro-2,3-dioxo-1,2,3,4-tetrahydro-quinoxalin-5-ylmethyl)-acetamide] here?
Answer: Its IC50 is 2050 nM.

Question: What about the IC50 [1] of the same molecule?
Answer: The IC50 was 200 nM.

Question: What about the “IC50 KA” value [2] of the same molecule?
Answer: Its value is 2970 nM.

Question: With `Cc1c([N+](=O)[O-])cc2[nH]c(=O)c(=O)[nH]c2c1CN(C)C(=O)Cc1ccccc1` [Compound 5, N-methyl-N-(6-methyl-7-nitro-2,3-dioxo-1,2,3,4-tetrahydro-quinoxalin-5-ylmethyl)-2-phenyl-acetamide] as the molecule, how does the IC50 (AMPA receptors) read?
Answer: Its IC50 is 350 nM.

Question: And the IC50 [1]?
Answer: The IC50 was 20 nM.

Question: And the “IC50 KA” value [2]?
Answer: Its value is 590 nM.

Question: What does the source list for `Cc1c([N+](=O)[O-])cc2[nH]c(=O)c(=O)[nH]c2c1CN(C)C(=O)c1ccccc1` [Compound 6, N-methyl-N-(6-methyl-7-nitro-2,3-dioxo-1,2,3,4-tetrahydro-quinoxalin-5-ylmethyl)-benzamide]?
Answer: IC50 (AMPA receptors): 1220 nM; IC50 [1]: 30 nM; IC50 KA [2]: 2770 nM

Question: For `Cc1c([N+](=O)[O-])cc2[nH]c(=O)c(=O)[nH]c2c1CN(C)C(=O)c1ccc(Cl)cc1` [Compound 7, 4-Chloro-N-methyl-N-(6-Methyl-7-nitro-2,3-dioxo-1,2,3,4-tetrahydro-quinoxalin-5-ylmethyl)-benzamide], which IC50 (AMPA receptors) is on record?
Answer: Its IC50 is 980 nM.

Question: And the IC50 [1]?
Answer: Its IC50 is 40 nM.

Question: What about the “IC50 KA” value [2] of the same molecule?
Answer: Its value is 1980 nM.

Question: Which results are given for `Cc1c([N+](=O)[O-])cc2[nH]c(=O)c(=O)[nH]c2c1CN(C)C(=O)c1ccc(C(F)(F)F)cc1` [Compound 8, N-Methyl-N-(6-Methyl-7-nitro-2,3-dioxo-1,2,3,4-tetrahydro-quinoxalin-5-ylmethyl)-4-trifluoromethyl-benzamide]?
Answer: IC50 (AMPA receptors): 1920 nM; IC50 KA [2]: 3700 nM

Question: With `Cc1c([N+](=O)[O-])cc2[nH]c(=O)c(=O)[nH]c2c1CN(C)C(=O)c1ccc(Cl)c(Cl)c1` [Compound 9, 3,4-Dichloro-N-methyl-N-(6-methyl-7-nitro-2,3-dioxo-1,2,3,4-tetrahydro-quinoxalin-5-ylmethyl)-benzamide] as the molecule, how does the IC50 (AMPA receptors) read?
Answer: The IC50 was 1690 nM.

Question: What about the “IC50 KA” value [2] of the same molecule?
Answer: Its value is 3450 nM.

Question: Which results are given for `Cc1c([N+](=O)[O-])cc2[nH]c(=O)c(=O)[nH]c2c1CN(C)C(=O)c1ccc([N+](=O)[O-])cc1` [Compound 10, N-Methyl-N-(6-Methyl-7-nitro-2,3-dioxo-1,2,3,4-tetrahydro-quinoxalin-5-ylmethyl)-4-nitro-benzamide]?
Answer: IC50 (AMPA receptors): 1120 nM; IC50 KA [2]: 950 nM

Question: `Cc1c([N+](=O)[O-])cc2[nH]c(=O)c(=O)[nH]c2c1CN(C)C(=O)c1cccs1` [Compound 11, Thiophene-2-carboxylic acid-methyl-(6-methyl-7-nitro-2,3-dioxo-1,2,3,4-tetrahydro-quinoxalin-5-ylmethyl)-amide] was tested. Which IC50 (AMPA receptors) did it give?
Answer: The IC50 was 460 nM.

Question: And the IC50 [1]?
Answer: The IC50 was 8 nM.

Question: And the “IC50 KA” value [2]?
Answer: Its value is 1230 nM.

Question: What about the “Ataxic (%)” value (CF-1 strain mice; 5 min, 10 mg/kg) of the same molecule?
Answer: Its value is 0%.

Question: What about the “Protected (%)” value (CF-1 strain mice; 5 min, 10 mg/kg) of the same molecule?
Answer: Its value is 0%.

Question: What about the “Ataxic (%)” value (CF-1 strain mice; 5 min, 30 mg/kg) of the same molecule?
Answer: The value was 40%.

Question: And the “Protected (%)” value (CF-1 strain mice; 5 min, 30 mg/kg)?
Answer: Its value is 40%.

Question: What about the “Ataxic (%)” value (CF-1 strain mice; 15 min, 10 mg/kg) of the same molecule?
Answer: The value was 0%.

Question: And the “Protected (%)” value (CF-1 strain mice; 15 min, 10 mg/kg)?
Answer: Its value is 40%.

Question: What about the “Ataxic (%)” value (CF-1 strain mice; 15 min, 30 mg/kg) of the same molecule?
Answer: The value was 60%.

Question: What about the “Protected (%)” value (CF-1 strain mice; 15 min, 30 mg/kg) of the same molecule?
Answer: Its value is 80%.

Question: What about the “Ataxic (%)” value (CF-1 strain mice; 30 min, 10 mg/kg) of the same molecule?
Answer: Its value is 0%.

Question: What about the “Protected (%)” value (CF-1 strain mice; 30 min, 10 mg/kg) of the same molecule?
Answer: Its value is 40%.

Question: And the “Ataxic (%)” value (CF-1 strain mice; 30 min, 30 mg/kg)?
Answer: The value was 20%.

Question: And the “Protected (%)” value (CF-1 strain mice; 30 min, 30 mg/kg)?
Answer: Its value is 40%.

Question: What about the “Ataxic (%)” value (CF-1 strain mice; 60 min, 10 mg/kg) of the same molecule?
Answer: Its value is 0%.

Question: What about the “Protected (%)” value (CF-1 strain mice; 60 min, 10 mg/kg) of the same molecule?
Answer: Its value is 0%.

Question: And the “Ataxic (%)” value (CF-1 strain mice; 60 min, 30 mg/kg)?
Answer: Its value is 20%.

Question: And the “Protected (%)” value (CF-1 strain mice; 60 min, 30 mg/kg)?
Answer: The value was 40%.

Question: What about the “duration of action in maximal electroshock time course compared with PNQX” value (CF-1 strain mice) of the same molecule?
Answer: The value was “extended duration of action”.

Question: With `Cc1c([N+](=O)[O-])cc2[nH]c(=O)c(=O)[nH]c2c1CN(C)C(=O)c1ccco1` [Compound 12, Furan-2-carboxylic acid methyl-(6-methyl-7-nitro-2,3-dioxo-1,2,3,4-tetrahydro-quinoxalin-5-ylmethyl)-amide] as the molecule, how does the IC50 (AMPA receptors) read?
Answer: Its IC50 is 380 nM.

Question: And the IC50 [1]?
Answer: The IC50 was 6 nM.

Question: And the “IC50 KA” value [2]?
Answer: Its value is 1210 nM.

Question: And the “Ataxic (%)” value (CF-1 strain mice; 3 min, 30 mg/kg)?
Answer: Its value is 40%.

Question: What about the “Protected (%)” value (CF-1 strain mice; 3 min, 30 mg/kg) of the same molecule?
Answer: Its value is 40%.

Question: And the “Ataxic (%)” value (CF-1 strain mice; 15 min, 10 mg/kg)?
Answer: Its value is 0%.

Question: What about the “Protected (%)” value (CF-1 strain mice; 15 min, 10 mg/kg) of the same molecule?
Answer: Its value is 40%.

Question: And the “Ataxic (%)” value (CF-1 strain mice; 15 min, 30 mg/kg)?
Answer: The value was 60%.

Question: And the “Protected (%)” value (CF-1 strain mice; 15 min, 30 mg/kg)?
Answer: The value was 80%.

Question: And the “Protected (%)” value (CF-1 strain mice; 30 min, 10 mg/kg)?
Answer: The value was 40%.

Question: What about the “Ataxic (%)” value (CF-1 strain mice; 30 min, 30 mg/kg) of the same molecule?
Answer: The value was 20%.

Question: What about the “Protected (%)” value (CF-1 strain mice; 30 min, 30 mg/kg) of the same molecule?
Answer: The value was 40%.

Question: What about the “Ataxic (%)” value (CF-1 strain mice; 60 min, 30 mg/kg) of the same molecule?
Answer: Its value is 20%.

Question: And the “Protected (%)” value (CF-1 strain mice; 60 min, 30 mg/kg)?
Answer: The value was 40%.

Question: What about the “duration of action in maximal electroshock time course compared with PNQX” value (CF-1 strain mice) of the same molecule?
Answer: The value was “extended duration of action”.

Question: How did the IC50 (AMPA receptors) turn out when `Cc1c([N+](=O)[O-])cc2[nH]c(=O)c(=O)[nH]c2c1CN(C)C(=O)c1cc2ccccc2s1` [Compound 13, Benzo[b]thiophene-2-carboxylic acid methyl-(6-methyl-7-nitro-2,3-dioxo-1,2,3,4-tetrahydro-quinoxalin-5-ylmethyl)-amide] was run?
Answer: The IC50 was 620 nM.

Question: What about the IC50 [1] of the same molecule?
Answer: Its IC50 is 40 nM.

Question: And the “IC50 KA” value [2]?
Answer: Its value is 5980 nM.

Question: With `COc1ccc(C(=O)N(C)Cc2c(C)c([N+](=O)[O-])cc3[nH]c(=O)c(=O)[nH]c23)cc1` [Compound 14, 4-Methoxy-N-methyl-N-(6-methyl-7-nitro-2,3-dioxo-1,2,3,4-tetrahydro-quinoxalin-5-ylmethyl)-benzamide] as the molecule, how does the IC50 (AMPA receptors) read?
Answer: The IC50 was 520 nM.

Question: And the IC50 [1]?
Answer: Its IC50 is 5 nM.

Question: What about the “IC50 KA” value [2] of the same molecule?
Answer: The value was 850 nM.

Question: How did the IC50 (AMPA receptors) turn out when `CCOC(=O)N(C)Cc1c(C)c([N+](=O)[O-])cc2[nH]c(=O)c(=O)[nH]c12` [Compound 15, Methyl-(6-methyl-7-nitro-2,3-dioxo-1,2,3,4-tetrahydro-quinoxalin-5-ylmethyl)-carbamic acid ethyl ester] was run?
Answer: Its IC50 is 210 nM.

Question: What about the IC50 [1] of the same molecule?
Answer: The IC50 was 100 nM.

Question: What about the “IC50 KA” value [2] of the same molecule?
Answer: The value was 290 nM.

Question: What about the “Ataxic (%)” value (CF-1 strain mice; 10 min, 3 mg/kg) of the same molecule?
Answer: Its value is 0%.

Question: And the “Protected (%)” value (CF-1 strain mice; 10 min, 3 mg/kg)?
Answer: The value was 0%.

Question: What about the “Ataxic (%)” value (CF-1 strain mice; 10 min, 10 mg/kg) of the same molecule?
Answer: Its value is 0%.

Question: What about the “Protected (%)” value (CF-1 strain mice; 10 min, 10 mg/kg) of the same molecule?
Answer: Its value is 40%.

Question: What about the “Ataxic (%)” value (CF-1 strain mice; 30 min, 3 mg/kg) of the same molecule?
Answer: Its value is 0%.

Question: What about the “Protected (%)” value (CF-1 strain mice; 30 min, 3 mg/kg) of the same molecule?
Answer: The value was 0%.

Question: And the “Ataxic (%)” value (CF-1 strain mice; 30 min, 10 mg/kg)?
Answer: The value was 0%.

Question: What about the “Protected (%)” value (CF-1 strain mice; 30 min, 10 mg/kg) of the same molecule?
Answer: The value was 60%.
